pEC50, pIC50: −log10 of the molar value.
Columns and labels:
human 5-LOX = biological target: T1, human 5-LOX (Homo sapiens, UniProt P09917); experiment: 5-LOX enzyme activity, fluorescence method (5-HPETE, H2DCFDA); format: biochemical; conditions: read-out: 5-LO (IC50)
T1 construct: purchased Cayman 60402; host or cells: insect cells (lysate)
T1 sequence (P09917 1-674): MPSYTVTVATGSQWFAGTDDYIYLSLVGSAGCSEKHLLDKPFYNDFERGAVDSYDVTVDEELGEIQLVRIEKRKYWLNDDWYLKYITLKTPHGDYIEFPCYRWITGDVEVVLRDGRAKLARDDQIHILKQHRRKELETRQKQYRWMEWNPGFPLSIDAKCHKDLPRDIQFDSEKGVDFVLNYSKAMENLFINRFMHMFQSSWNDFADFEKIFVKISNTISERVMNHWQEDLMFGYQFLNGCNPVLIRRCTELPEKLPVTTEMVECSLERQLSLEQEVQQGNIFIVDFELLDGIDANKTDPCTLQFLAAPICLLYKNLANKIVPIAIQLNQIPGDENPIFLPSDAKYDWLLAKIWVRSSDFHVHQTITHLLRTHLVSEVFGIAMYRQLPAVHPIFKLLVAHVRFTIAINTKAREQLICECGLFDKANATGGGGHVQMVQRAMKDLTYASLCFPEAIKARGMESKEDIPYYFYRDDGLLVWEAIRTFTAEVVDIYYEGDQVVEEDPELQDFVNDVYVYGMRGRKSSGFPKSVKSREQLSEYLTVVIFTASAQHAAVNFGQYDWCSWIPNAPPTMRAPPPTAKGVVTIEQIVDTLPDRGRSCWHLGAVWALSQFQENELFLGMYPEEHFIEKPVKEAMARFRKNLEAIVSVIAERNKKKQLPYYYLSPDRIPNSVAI
In short: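 Compound (0.5 nM to 10 uM) pre-incubated 5 min with enzyme; reaction started with ATP (100 uM final) and arachidonic acid (3 uM final). All steps at room temperature, fluorescence read-out.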

[1] = system: Rat basophilic leukemia (RBL) cells; experiment: LTB4 secretion assay in RBL (rat basophilic leukemia cells); format: cell-based; conditions: Rattus norvegicus, RBL
In short: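 Cells seeded 2×10^4/well the day before, then pre-incubated 15 min at 37 °C in EMEM/0.5% FBS with compound (5 nM to 100 uM). Stimulation with 2.5 uM arachidonic acid plus 5 uM A23187 (final) for 10 min at 37 °C; LTB4 in supernatant quantified by EIA.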

Rat whole blood (RWB) = experiment: LTB4 secretion assay in RWB (rat whole blood); format: cell-based; conditions: Rattus norvegicus
In short: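 Heparinized blood from male Sprague Dawley rats (6-9 weeks) diluted 1:1 in RPMI, pre-incubated 15 min at 37 °C with compound (2.5 nM to 50 uM). Stimulated with 10 uM calcium ionophore A23187 for 10 min at 37 °C, stopped with ice-cold PBS; LTB4 in supernatant quantified by EIA.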

| SMILES | pIC50 (human 5-LOX) | pEC50 [1] | pEC50 (Rat whole blood (RWB)) |
| --- | --- | --- | --- |
| Cn1c(NCc2ccc(Oc3ncc(Cl)cc3F)cc2)nc2ccc(NC3COC3)cc21 [Compound 324] | > 6.00 | > 5.00 | > 5.00 |
| COc1cc(Oc2ccc(Cl)cn2)ccc1CNc1nc2ccc(NC3COC3)cc2n1C [Compound 328] | > 6.00 | > 5.00 | > 5.00 |
| Cn1c(NCc2ccc(Oc3ncc(F)cn3)cc2)nc2ccc(N)cc21 [Compound 336] | > 6.00 | 4.70 to 5.00 | > 5.00 |
| Cn1c(NCc2ccc(Oc3ncc(F)cn3)cc2)nc2ccc(NC3COC3)cc21 [Compound 337] | > 6.00 | 4.70 to 5.00 | 4.70 to 5.00 |
| Cn1c(NCc2ccc(Oc3cnc(Cl)nc3)cc2)nc2ccc(NC3COC3)cc21 [Compound 341] | > 6.00 | 4.70 to 5.00 | > 5.00 |
| Cn1c(NCc2ccc(OCc3ncco3)cc2)nc2ccc(NC3COC3)cc21 [Compound 343] | > 6.00 | < 4.70 | 4.70 to 5.00 |
| Cn1c(NCc2ccc(Oc3ncccn3)cc2)nc2ccc(N)cc21 [Compound 344] | > 6.00 | < 4.70 | 4.70 to 5.00 |
| Cn1c(NCc2ccc(Oc3ncccn3)cc2)nc2ccc(NC3COC3)cc21 [Compound 345] | > 6.00 | < 4.70 | > 5.00 |
| Cn1c(NCc2ccc(Oc3ccc(C#N)cn3)cc2)nc2ccc(N)cc21 [Compound 350] | > 6.00 | > 5.00 | > 5.00 |
| Cn1c(NCc2ccc(Oc3ccc(C#N)cn3)cc2)nc2ccc(NC3COC3)cc21 [Compound 351] | > 6.00 | 4.70 to 5.00 | > 5.00 |
| Cn1c(NCc2ccc(Oc3nc4ccccc4n3C)cc2)nc2ccc(NC3COC3)cc21 [Compound 357] | > 6.00 | > 5.00 | 4.70 to 5.00 |
| Cn1c(NCc2ccc(Oc3ncc(Cl)cn3)cc2)nc2ccc(NC(C)(C)C(N)=O)cc21 [Compound 358] | > 6.00 | > 5.00 | > 5.00 |
| Cn1c(NCc2ccc(Oc3cnc(N)nc3)cc2)nc2ccc(N)cc21 [Compound 360] | > 6.00 | 4.70 to 5.00 | > 5.00 |
| Cn1c(NCc2ccc(Oc3ncc(Br)cn3)cc2)nc2ccc(NC3COC3)cc21 [Compound 362] | > 6.00 | 4.70 to 5.00 | > 5.00 |
| Cn1c(NCc2ccc(Oc3nccc(C(F)(F)F)n3)cc2)nc2ccc(NC3COC3)cc21 [Compound 364] | > 6.00 | < 4.70 | < 4.70 |
| Cn1c(NCc2ccc(Oc3ncc(C#N)cn3)cc2)nc2ccc(N)cc21 [Compound 367] | > 6.00 | > 5.00 | > 5.00 |
| Cn1c(NCc2ccc(Oc3ncc(C#N)cn3)cc2)nc2ccc(NC3COC3)cc21 [Compound 368] | > 6.00 | > 5.00 | > 5.00 |
| Cn1c(NCc2ccc(Oc3cnc(N)nc3)cc2)nc2ccc(NC3COC3)cc21 [Compound 369] | > 6.00 | > 5.00 | > 5.00 |
| Cn1c(NCc2ccc(Oc3ccncn3)cc2)nc2ccc(NC3COC3)cc21 [Compound 371] | > 6.00 | 4.70 to 5.00 | 4.70 to 5.00 |
| Cn1c(NCc2ccc(Oc3ncc(C(F)(F)F)cn3)cc2)nc2ccc(N)cc21 [Compound 373] | > 6.00 | > 5.00 | > 5.00 |

| SMILES | pIC50 (human 5-LOX) | pEC50 [1] | pEC50 (Rat whole blood (RWB)) |
| --- | --- | --- | --- |
| Cn1c(NCc2ccc(Oc3ncc(C(F)(F)F)cn3)cc2)nc2ccc(NC3COC3)cc21 [Compound 374] | > 6.00 | > 5.00 | > 5.00 |
| Cn1c(NCc2ccc(Oc3ccc(OC(F)(F)F)cn3)cc2)nc2ccc(NC3COC3)cc21 [Compound 378] | > 6.00 | > 5.00 | > 5.00 |
| Cn1c(NCc2ccc(Oc3ncc(Cl)cn3)cc2F)nc2ccc(NC3COC3)cc21 [Compound 381] | > 6.00 | < 4.70 | > 5.00 |
| Cn1c(NCc2ccc(Oc3ccc4cc(F)ccc4n3)cc2)nc2ccc(NC3COC3)cc21 [Compound 383] | > 6.00 | > 5.00 | < 4.70 |
| Cn1c(NCc2ccc(Oc3ncc(Cl)cn3)c(Cl)c2)nc2ccc(NC3COC3)cc21 [Compound 392] | > 6.00 | > 5.00 | > 5.00 |
| Cn1c(NCc2ccc(Oc3cc(Cl)ncn3)cc2)nc2ccc(NC3COC3)cc21 [Compound 394] | > 6.00 | 4.70 to 5.00 | < 4.70 |
| Cn1c(NCc2ccc(Oc3nc4ccc(N)cc4n3C)cc2)nc2ccc(NC3COC3)cc21 [Compound 409] | > 6.00 | < 4.70 | < 4.70 |
| Cn1c(NCc2ccc(Oc3ncc(OC(F)(F)F)cn3)cc2)nc2ccc(NC3COC3)cc21 [Compound 412] | > 6.00 | > 5.00 | > 5.00 |
| Cn1ccc(Nc2ccc3nc(NCc4ccc(Oc5ccc(Cl)cn5)cc4)n(C)c3c2)n1 [Compound 413] | > 6.00 | > 5.00 | > 5.00 |
| Cn1ccc(Nc2ccc3nc(NCc4ccc(Oc5ncc(Cl)cn5)cc4)n(C)c3c2)n1 [Compound 414] | > 6.00 | > 5.00 | > 5.00 |
| Cc1cc(Nc2ccc3nc(NCc4ccc(Oc5ncc(Cl)cn5)cc4)n(C)c3c2)n[nH]1 [Compound 415] | > 6.00 | > 5.00 | > 5.00 |
| Cc1cc(Oc2ncc(Cl)cn2)cc(C)c1CNc1nc2ccc(NC3COC3)cc2n1C [Compound 417] | > 6.00 | < 4.70 | < 4.70 |
| Cc1cc(CNc2nc3ccc(NC4COC4)cc3n2C)cc(C)c1Oc1ncc(Cl)cn1 [Compound 418] | > 6.00 | < 4.70 | < 4.70 |
| Cn1c(NCc2c(F)cc(Oc3ncc(Cl)cn3)cc2F)nc2ccc(N)cc21 [Compound 430] | > 6.00 | > 5.00 | > 5.00 |
| Cn1c(NCc2c(F)cc(Oc3ncc(Cl)cn3)cc2F)nc2ccc(NC3COC3)cc21 [Compound 431] | > 6.00 | > 5.00 | > 5.00 |
| Cn1c(NCc2cc(Cl)c(Oc3ncc(Cl)cn3)cc2Cl)nc2ccc(NC3COC3)cc21 [Compound 433] | > 6.00 | 4.70 to 5.00 | > 5.00 |
| Cn1c(NCc2ccc(Oc3ncc(Cl)cn3)cc2)nc2ccc(Nc3ccccn3)cc21 [Compound 447] | 5.00 to 6.00 | > 5.00 | > 5.00 |
| Cn1c(NCc2ccc(Oc3ccc(Cl)cn3)cc2)nc2ccc(Nc3ccccn3)cc21 [Compound 448] | 5.00 to 6.00 | > 5.00 | > 5.00 |
| Cn1c(NCc2ccc(Oc3ccc(Cl)cn3)cc2)nc2ccc(Nc3cc[nH]n3)cc21 [Compound 449] | > 6.00 | > 5.00 | > 5.00 |

Reference: patent US11447486B2, “2-amino-benzimidazole derivatives and their use as 5-lipoxygenase and/or prostaglandin E synthase inhibitors” (INSTITUT PASTEUR KOREA, priority 2014, dated 2022)
